Data reported in patent publication US12486273B2 (Hoffmann-La Roche Inc., priority 2019, dated 2025).

What was measured:
human TLR7 = human TLR7 (Homo sapiens (Human), UniProt Q9NYK1); assay: HEK293-Blue-hTLR-7 cells assay; format: cell-based; conditions: HEK293-Blue-hTLR7 cells, R848 stimulation, 20 hrs, SEAP reporter; read-out: HEK/hTLR7 IC50
Source text: HEK293-BLUE-hTLR-7 CELLS ASSAY:
(§1) A stable HEK293-Blue-hTLR-7 cell line was purchased from InvivoGen (Cat. #: hkb-htlr7, San Diego, California, USA). These cells were originally designed for studying the stimulation of human TLR7 by monitoring the activation of NF-κB. A SEAP (secreted embryonic alkaline phosphatase) reporter gene was placed under the control of the IFN-β minimal promoter fused to five NF-κB and AP-1-binding sites. The SEAP was induced by activating NF-κB and AP-1 via stimulating HEK-Blue hTLR7 cells with TLR7 ligands. Therefore the reporter expression was declined by TLR7 antagonist under the stimulation of a ligand, such as R848 (Resiquimod), for incubation of 20 hrs. The cell culture supernatant SEAP reporter activity was determined using QUANTI-Blue™ kit (Cat. #: rep-qb1, Invivogen, San Diego, Ca, USA) at a wavelength of 640 nm, a detection medium that turns purple or blue in the presence of alkaline phosphatase.
(§2) HEK293-Blue-hTLR7 cells were incubated at a density of 250,000˜450,000 cells/mL in a volume of 170 μL in a 96-well plate in Dulbecco's Modified Eagle's medium (DMEM) containing 4.5 g/L glucose, 50 U/mL penicillin, […], […], 2 mM L-glutamine, 10% (v/v) heat-inactivated fetal bovine serum with addition of 20 μL test compound in a serial dilution in the presence of final DMSO at 1% and 10 μL of 20 μM R848 in above DMEM, perform incubation under 37° C. in a CO2 incubator for 20 hrs. Then 20 μL of the supernatant from each well was incubated with 180 μL Quanti-blue substrate solution at 37° C. for 2 hrs and the absorbance was read at 620-655 nm using a spectrophotometer. The signaling pathway that TLR7 activation leads to downstream NF-κB activation has been widely accepted, and therefore similar reporter assay was modified for evaluating TLR7 antagonist.

human TLR8 = human TLR8 (Homo sapiens (Human), UniProt Q9NR97); assay: HEK293-Blue-hTLR-8 cells assay; format: cell-based; conditions: HEK293-Blue-hTLR8 cells, R848 stimulation, 20 hrs, SEAP reporter; read-out: HEK/hTLR8 IC50
Source text: HEK293-Blue-hTLR-8 Cells Assay:
as §1, with “HEK293-Blue-hTLR-8” for “HEK293-Blue-hTLR-7”, “hkb-htlr8,” for “hkb-htlr7,”, “TLR8” for “TLR7”, “hTLR8” for “hTLR7”, “R848,” for “R848 (Resiquimod),”, “rep-Qb1,” for “rep-qb1,”
HEK293-Blue-hTLR8 cells were incubated at a density of 250,000-450,000 cells/mL in a volume of 170 μL in a 96-well plate in Dulbecco's Modified Eagle's medium (DMEM) containing 4.5 g/L glucose, 50 U/mL penicillin, […], […], 2 mM L-glutamine, 10% (v/v) heat-inactivated fetal bovine serum with addition of 20 μL test compound in a serial dilution in the presence of final DMSO at 1% and 10 μL of 60 μM R848 in above DMEM, perform incubation under 37° C. in a CO2 incubator for 20 hrs. Then 20 μL of the supernatant from each well was incubated with 180 μL Quanti-blue substrate solution at 37° C. for […] and the absorbance was read at 620˜655 nm using a spectrophotometer. The signaling pathway that TLR8 activation leads to downstream NF-κB activation has been widely accepted, and therefore similar reporter assay was modified for evaluating TLR8 antagonist.

human TLR9 = human TLR9 (Homo sapiens (Human), UniProt Q9NR96); assay: HEK293-Blue-hTLR-9 cells assay; format: cell-based; conditions: HEK293-Blue-hTLR9 cells, ODN2006 stimulation, 20 hrs, SEAP reporter; read-out: HEK/hTLR9 IC50
Source text: HEK293-Blue-hTLR-9 Cells Assay:
A stable HEK293-Blue-hTLR-9 cell line was purchased from InvivoGen (Cat. #: hkb-htlr9, San Diego, California, USA). These cells were originally designed for studying the stimulation of human TLR9 by monitoring the activation of NF-κB. A SEAP (secreted embryonic alkaline phosphatase) reporter gene was placed under the control of the IFN-β minimal promoter fused to five NF-κB and AP-1-binding sites. The SEAP was induced by activating NF-κB and AP-via stimulating HEK-Blue hTLR9 cells with TLR9 ligands. Therefore the reporter expression was declined by TLR9 antagonist under the stimulation of a ligand, such as ODN2006 (Cat. #: tlrl-2006-1, Invivogen, San Diego, California, USA), for incubation of 20 hrs. The cell culture supernatant SEAP reporter activity was determined using QUANTI-Blue™ kit (Cat. #: rep-qb1, Invivogen, San Diego, California, USA) at a wavelength of 640 nm, a detection medium that turns purple or blue in the presence of alkaline phosphatase.
as §2, with “HEK293-Blue-hTLR9 cells” for “HEK293-Blue-hTLR7 cells”, “μM ODN2006” for “μM R848”, “2 h” for “2 hrs”, “that TLR9” for “that TLR7”, “evaluating TLR9” for “evaluating TLR7”

[1] = Human microsomal stability assay; format: in vitro ADME; conditions: human liver microsomes, 1 μM test compound, 37° C., pH 7.4
Description: Human Microsomal Stability Assay
Human liver microsomes (Cat. NO.: 452117, Corning, USA) were preincubated with test compound for 10 minutes at 37° C. in 100 mM potassium phosphate buffer, pH 7.4. The reactions were initiated by adding NADPH regenerating system. The final incubation mixtures contained 1 μM test compound, 0.5 mg/mL liver microsomal protein, 1 mM MgCl2, 1 mM NADP, 1 unit/mL isocitric dehydrogenase and 6 mM isocitric acid in 100 mM potassium phosphate buffer, pH 7.4. After incubation times of 0, 3, 6, 9, 15 and 30 minutes at 37° C., 300 μL of cold ACN (including internal standard) was added to 100 μL incubation mixture to terminate the reaction. Following precipitation and centrifugation, 100 μL supernatant will be taken out and added 300 μL water. The amount of compound remaining in the samples was determined by LC-MS/MS. Controls of no NADPH regenerating system at zero and 30 minutes were also prepared and analyzed. The results were categorized as: low (<7.0 mL/min/kg), medium (7.0-16.2 mL/min/kg) and high (16.2-23.2 mL/min/kg).

Sequence of human TLR8 (Q9NR97 27-1041): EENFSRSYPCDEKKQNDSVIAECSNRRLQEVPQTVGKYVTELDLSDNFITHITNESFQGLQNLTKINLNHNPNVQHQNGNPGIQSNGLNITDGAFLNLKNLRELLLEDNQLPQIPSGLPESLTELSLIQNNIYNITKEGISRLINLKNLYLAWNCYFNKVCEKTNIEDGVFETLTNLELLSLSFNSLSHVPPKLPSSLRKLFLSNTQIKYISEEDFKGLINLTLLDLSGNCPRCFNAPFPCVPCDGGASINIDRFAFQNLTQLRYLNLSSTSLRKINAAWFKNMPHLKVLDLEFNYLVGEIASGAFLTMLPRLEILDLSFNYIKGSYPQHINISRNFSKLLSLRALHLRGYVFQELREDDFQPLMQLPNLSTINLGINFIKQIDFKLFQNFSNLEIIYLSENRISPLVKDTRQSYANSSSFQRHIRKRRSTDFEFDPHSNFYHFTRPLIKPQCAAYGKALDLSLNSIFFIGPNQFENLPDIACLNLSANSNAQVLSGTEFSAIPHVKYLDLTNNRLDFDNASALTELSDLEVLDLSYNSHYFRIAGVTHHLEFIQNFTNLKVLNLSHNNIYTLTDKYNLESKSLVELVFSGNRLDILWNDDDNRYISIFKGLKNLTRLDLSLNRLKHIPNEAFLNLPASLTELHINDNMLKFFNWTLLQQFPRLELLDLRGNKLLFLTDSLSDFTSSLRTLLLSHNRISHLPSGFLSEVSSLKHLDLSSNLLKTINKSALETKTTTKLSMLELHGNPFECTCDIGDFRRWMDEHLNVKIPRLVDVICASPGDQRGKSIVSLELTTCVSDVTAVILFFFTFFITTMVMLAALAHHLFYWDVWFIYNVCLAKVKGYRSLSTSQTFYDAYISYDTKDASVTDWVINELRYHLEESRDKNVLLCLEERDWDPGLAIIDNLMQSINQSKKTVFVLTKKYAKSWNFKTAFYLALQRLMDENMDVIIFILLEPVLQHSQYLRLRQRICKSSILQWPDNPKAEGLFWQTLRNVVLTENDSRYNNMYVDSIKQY
Sequence of human TLR9 (Q9NR96 26-1032): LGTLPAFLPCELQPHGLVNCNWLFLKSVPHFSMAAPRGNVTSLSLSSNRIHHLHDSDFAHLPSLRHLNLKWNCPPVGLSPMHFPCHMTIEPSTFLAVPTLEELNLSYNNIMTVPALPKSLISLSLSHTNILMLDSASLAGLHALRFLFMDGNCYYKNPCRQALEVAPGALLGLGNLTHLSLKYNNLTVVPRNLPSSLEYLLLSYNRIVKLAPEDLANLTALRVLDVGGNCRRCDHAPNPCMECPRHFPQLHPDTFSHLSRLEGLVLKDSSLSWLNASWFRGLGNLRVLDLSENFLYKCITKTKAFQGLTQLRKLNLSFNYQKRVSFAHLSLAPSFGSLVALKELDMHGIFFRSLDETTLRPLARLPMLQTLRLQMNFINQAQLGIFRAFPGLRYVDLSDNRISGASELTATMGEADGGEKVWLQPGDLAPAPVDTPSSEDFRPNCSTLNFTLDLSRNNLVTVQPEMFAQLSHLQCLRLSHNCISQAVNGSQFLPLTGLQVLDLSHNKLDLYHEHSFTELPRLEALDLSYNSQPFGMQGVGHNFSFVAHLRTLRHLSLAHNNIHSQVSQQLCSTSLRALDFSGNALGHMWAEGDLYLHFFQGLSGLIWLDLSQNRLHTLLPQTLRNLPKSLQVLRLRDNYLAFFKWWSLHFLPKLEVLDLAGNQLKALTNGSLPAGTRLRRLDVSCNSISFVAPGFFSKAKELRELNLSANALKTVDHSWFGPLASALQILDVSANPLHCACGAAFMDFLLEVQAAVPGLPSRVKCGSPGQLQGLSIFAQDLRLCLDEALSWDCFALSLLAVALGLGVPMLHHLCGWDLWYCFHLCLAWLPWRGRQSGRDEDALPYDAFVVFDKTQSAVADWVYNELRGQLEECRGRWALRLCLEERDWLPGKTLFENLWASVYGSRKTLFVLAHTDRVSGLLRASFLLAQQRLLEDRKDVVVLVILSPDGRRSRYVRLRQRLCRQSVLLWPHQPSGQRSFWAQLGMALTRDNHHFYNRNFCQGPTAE
Sequence of human TLR7 (Q9NYK1 27-1049): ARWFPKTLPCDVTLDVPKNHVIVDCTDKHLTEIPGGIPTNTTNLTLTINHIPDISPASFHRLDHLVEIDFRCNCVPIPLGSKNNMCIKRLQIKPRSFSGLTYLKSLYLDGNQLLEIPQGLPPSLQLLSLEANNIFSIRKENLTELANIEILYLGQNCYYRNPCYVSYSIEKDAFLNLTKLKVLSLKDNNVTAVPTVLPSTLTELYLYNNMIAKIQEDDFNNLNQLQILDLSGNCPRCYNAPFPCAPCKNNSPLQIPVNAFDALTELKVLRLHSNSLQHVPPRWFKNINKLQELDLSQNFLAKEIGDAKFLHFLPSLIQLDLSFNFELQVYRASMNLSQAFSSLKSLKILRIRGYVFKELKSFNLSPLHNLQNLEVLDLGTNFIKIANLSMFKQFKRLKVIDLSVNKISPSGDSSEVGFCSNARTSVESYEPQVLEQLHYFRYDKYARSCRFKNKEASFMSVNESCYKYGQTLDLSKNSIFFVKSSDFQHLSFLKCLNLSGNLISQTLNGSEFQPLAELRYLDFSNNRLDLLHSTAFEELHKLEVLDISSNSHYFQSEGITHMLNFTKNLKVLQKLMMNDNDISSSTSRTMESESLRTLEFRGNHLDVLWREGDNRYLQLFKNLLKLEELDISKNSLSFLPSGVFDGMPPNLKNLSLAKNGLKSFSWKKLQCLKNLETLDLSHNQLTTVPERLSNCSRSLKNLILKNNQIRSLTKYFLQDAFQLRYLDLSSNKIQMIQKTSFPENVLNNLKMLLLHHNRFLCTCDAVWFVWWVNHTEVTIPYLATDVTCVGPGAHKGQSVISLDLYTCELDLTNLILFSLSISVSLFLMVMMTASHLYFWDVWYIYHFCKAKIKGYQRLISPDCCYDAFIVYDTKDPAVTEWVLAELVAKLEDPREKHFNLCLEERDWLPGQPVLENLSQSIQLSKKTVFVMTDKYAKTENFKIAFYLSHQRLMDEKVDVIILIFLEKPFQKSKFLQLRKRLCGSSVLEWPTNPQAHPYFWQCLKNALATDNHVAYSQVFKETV

Structure (SMILES)	IC50 (human TLR7) [µM]	IC50 (human TLR8) [µM]	IC50 (human TLR9) [µM]	CL (h) [1] [L/h/kg]
[2H]c1ccc2c(N3C[C@@H]4C[C@H](N5CCC(C)(N)C5)CN4[C@H](C)C3)ccc(C#N)c2n1 (stereo partly drawn) [Example 19, 2-Deuterio-5-[(4R,7S,8aS)-7-(3-amino-3-methyl-pyrrolidin-1-yl)-4-methyl-3,4,6,7,8,8a-hexahydro-1H-pyrrolo[1,2-a]pyrazin-2-yl]quinoline-8-carbonitrile]	0.0199	0.0089	0.21	0.516
[2H]c1ccc2c(N3C[C@@H]4C[C@H](n5ncc6c5CNCC6)CN4[C@H](C)C3)ccc(C#N)c2n1 [Example 23A, 2-Deuterio-5-[(4R,7S,8aS)-4-methyl-7-(4,5,6,7-tetrahydropyrazolo[3,4-c]pyridin-1-yl)-3,4,6,7,8,8a-hexahydro-1H-pyrrolo[1,2-a]pyrazin-2-yl]quinoline-8-carbonitrile]	0.0105	0.0138	0.407	0.486
[2H]c1ccc2c(N3C[C@@H]4C[C@H](N5CCC(C)(N)CC5)CN4[C@H](C)C3)ccc(C#N)c2n1 [Example 18, 5-[(4R,7S,8aS)-7-(4-amino-4-methyl-1-piperidyl)-4-methyl-3,4,6,7,8,8a-hexahydro-1H-pyrrolo[1,2-a]pyrazin-2-yl]-2-deuterio-quinoline-8-carbonitrile]	0.0164	0.0123	0.0467	0.588
[2H]c1ccc2c(N3C[C@@H]4C[C@H](N5CC6CCC(C5)N6)CN4[C@H](C)C3)ccc(C#N)c2n1 [Example 16, 2-Deuterio-5-[(4R,7S,8aS)-7-(3,8-diazabicyclo[3.2.1]octan-3-yl)-4-methyl-3,4,6,7,8,8a-hexahydro-1H-pyrrolo[1,2-a]pyrazin-2-yl]quinoline-8-carbonitrile]	0.0081	0.0047	0.0409	0.432
C[C@@H]1NCCc2cnc(N[C@@H]3C[C@H]4CN(c5ccc(C#N)c6ncccc56)C[C@@H](C)N4C3)cc21 [Example 9A, 5-[(4R,7R,8aS)-4-methyl-7-[[(5S)-5-methyl-5,6,7,8-tetrahydro-2,6-naphthyridin-3-yl]amino]-3,4,6,7,8,8a-hexahydro-1H-pyrrolo[1,2-a]pyrazin-2-yl]quinoline-8-carbonitrile]	0.0182	0.0086	0.0657	0.504
[2H]c1ccc2c(N3C[C@@H]4C[C@H](N5CCC6(CCCNC6)CC5)CN4[C@H](C)C3)ccc(C#N)c2n1 [Example 21, 2-Deuterio-5-[(4R,7S,8aS)-7-(2,9-diazaspiro[5.5]undecan-9-yl)-4-methyl-3,4,6,7,8,8a-hexahydro-1H-pyrrolo[1,2-a]pyrazin-2-yl]quinoline-8-carbonitrile]	0.0304	0.0103	0.0451	

Further compounds by falling IC50 (human TLR7), results first:

IC50 (human TLR7) [µM]	IC50 (human TLR8) [µM]	IC50 (human TLR9) [µM]	CL (h) [1] [L/h/kg]	Structure (SMILES)
0.0298	0.0113	0.0565		C[C@@H]1NCc2nc(N[C@@H]3C[C@H]4CN(c5ccc(C#N)c6ncccc56)C[C@@H](C)N4C3)ccc21 [Example 7B, 5-[(4R,7R,8aS)-4-methyl-7-[[(5S)-5-methyl-6,7-dihydro-5H-pyrrolo[3,4-b]pyridin-2-yl]amino]-3,4,6,7,8,8a-hexahydro-1H-pyrrolo[1,2-a]pyrazin-2-yl]quinoline-8-carbonitrile]
0.0133	0.0047	0.0421	0.576	C[C@@H]1CN(c2ccc(C#N)c3ncccc23)C[C@@H]2C[C@@H](Nc3cc4c(cn3)CCN[C@@H]4C)CN21 [Example 9B, 5-[(4R,7R,8aS)-4-methyl-7-[[(5R)-5-methyl-5,6,7,8-tetrahydro-2,6-naphthyridin-3-yl]amino]-3,4,6,7,8,8a-hexahydro-1H-pyrrolo[1,2-a]pyrazin-2-yl]quinoline-8-carbonitrile]
0.0103	0.0145	0.0321	0.492	[2H]c1ccc2c(N3C[C@@H]4C[C@H](N5CC(n6ncc7c6CN[C@H](C)C7)C5)CN4[C@H](C)C3)ccc(C#N)c2n1 [Example 22A, 5-[(4R,7S,8aS)-4-methyl-7-[3-[(5R)-5-methyl-4,5,6,7-tetrahydropyrazolo[3,4-c]pyridin-1-yl]azetidin-1-yl]-3,4,6,7,8,8a-hexahydro-1H-pyrrolo[1,2-a]pyrazin-2-yl]-2-deuterio-quinoline-8-carbonitrile]
0.0043	0.0059	0.0952	0.534	[2H]c1ccc2c(N3C[C@@H]4C[C@H](N5CCc6ncc(N7CCNCC7)nc6C5)CN4[C@H](C)C3)ccc(C#N)c2n1 [Example 24]
